US20230055237A1, “COMPOUNDS AND METHODS FOR THE TREATMENT OF CYSTIC FIBROSIS” (Flatley Discovery Lab, LLC, priority 2019, published 2023)

Molecular target: T1, CFTR (Homo sapiens, UniProt P13569, DEL508-508)
T1 construct: Primary CF airway epithelial cells were obtained from the UNC Cystic Fibrosis Tissue Procurement and Cell Culture Core; host or cells: primary CF airway epithelial cells, differentiated at the air-liquid interface
Assay: Equivalent current assay in primary CF airway epithelial cells (NAUC, combination with 1st site corrector FDL169 or VX-809)
Type: cell-based
Conditions: 37° C., 24 h

[1] = test compound 1 μM in combination with 1st site corrector FDL169 (3 μM)
[2] = test compound 3 μM in combination with 1st site corrector FDL169 (3 μM)
[3] = test compound 10 μM in combination with 1st site corrector FDL169 (3 μM)
[4] = test compound 10 μM in combination with 1st site corrector VX-809 (3 μM)
[5] = test compound 3 μM in combination with 1st site corrector VX-809 (3 μM)
[6] = test compound 1 μM in combination with 1st site corrector VX-809 (3 μM)

T1 sequence (P13569 with tags, fused parts or gaps DEL508-508): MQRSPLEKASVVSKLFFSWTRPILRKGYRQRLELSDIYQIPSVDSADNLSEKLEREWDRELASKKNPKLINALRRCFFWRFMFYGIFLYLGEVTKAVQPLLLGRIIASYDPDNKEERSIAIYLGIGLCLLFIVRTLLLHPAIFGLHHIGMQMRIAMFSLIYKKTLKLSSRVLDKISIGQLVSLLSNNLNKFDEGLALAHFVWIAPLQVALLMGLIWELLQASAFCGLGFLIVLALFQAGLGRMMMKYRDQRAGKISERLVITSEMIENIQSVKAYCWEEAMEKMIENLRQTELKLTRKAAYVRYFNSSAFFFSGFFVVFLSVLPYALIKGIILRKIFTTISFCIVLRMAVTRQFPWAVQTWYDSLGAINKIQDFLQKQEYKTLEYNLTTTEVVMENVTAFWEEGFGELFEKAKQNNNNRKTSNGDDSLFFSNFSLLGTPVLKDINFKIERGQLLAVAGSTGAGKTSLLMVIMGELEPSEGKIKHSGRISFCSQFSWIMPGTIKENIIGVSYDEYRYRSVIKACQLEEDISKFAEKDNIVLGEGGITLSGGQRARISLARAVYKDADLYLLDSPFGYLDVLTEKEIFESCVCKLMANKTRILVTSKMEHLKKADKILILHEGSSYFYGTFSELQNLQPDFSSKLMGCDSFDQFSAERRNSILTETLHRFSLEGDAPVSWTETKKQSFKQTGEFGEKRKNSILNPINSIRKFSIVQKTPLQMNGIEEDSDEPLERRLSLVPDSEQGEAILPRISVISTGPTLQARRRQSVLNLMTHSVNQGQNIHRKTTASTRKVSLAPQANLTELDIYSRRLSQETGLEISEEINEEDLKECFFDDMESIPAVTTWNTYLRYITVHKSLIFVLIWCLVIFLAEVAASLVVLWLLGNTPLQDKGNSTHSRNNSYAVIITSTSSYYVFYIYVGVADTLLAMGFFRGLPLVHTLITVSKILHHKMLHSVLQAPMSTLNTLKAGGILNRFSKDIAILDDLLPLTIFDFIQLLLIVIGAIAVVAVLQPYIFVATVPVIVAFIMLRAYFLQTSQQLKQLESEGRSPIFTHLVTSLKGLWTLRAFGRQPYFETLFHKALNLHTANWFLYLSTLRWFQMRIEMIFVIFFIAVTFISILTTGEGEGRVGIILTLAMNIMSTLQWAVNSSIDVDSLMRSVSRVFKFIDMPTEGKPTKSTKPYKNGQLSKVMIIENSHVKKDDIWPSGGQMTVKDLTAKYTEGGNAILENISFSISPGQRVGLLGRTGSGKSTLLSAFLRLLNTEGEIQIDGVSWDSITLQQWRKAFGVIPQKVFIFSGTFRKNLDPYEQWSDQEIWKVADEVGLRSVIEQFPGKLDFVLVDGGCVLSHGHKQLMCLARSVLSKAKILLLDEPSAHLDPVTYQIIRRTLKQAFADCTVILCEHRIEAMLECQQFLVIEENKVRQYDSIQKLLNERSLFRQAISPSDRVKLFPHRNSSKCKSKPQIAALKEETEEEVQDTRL

| Compound | Nauc @ 1 μM [1] | Nauc @ 3 μM [2] | Nauc @ 10 μM [3] | Nauc @ 10 μM [4] | Nauc @ 3 μM [5] | Nauc @ 1 μM [6] |
| --- | --- | --- | --- | --- | --- | --- |
| O=C(O)[C@H]1[C@@H](C(=O)N(Cc2ccccc2)c2cc(Cl)cc(Cl)c2)[C@H]2CC(F)(F)CN2[C@]12C(=O)Nc1c(Cl)cc(Cl)cc12 [Example 149] | ++ (NAUC “++” refers to an observed NAUC 170-140% of positive control) | +++ (NAUC “+++” refers to an observed NAUC>170% of positive control) | + (NAUC “+” refers to an observed NAUC <140% of positive control) |  |  |  |
| COc1cc(C(F)(F)F)cc(NC(=O)C2C3CC(F)(F)CN3C3(C(=O)Nc4c(Cl)cc(Cl)cc43)C2C(=O)O)n1 (single isomer, unassigned) [Example 80.7b.1, 5,7-dichloro-6′,6′-difluoro-1′-((6-methoxy-4-(trifluoromethyl)pyridin-2-yl)carbamoyl)-2-oxo-1′,2′,5′,6′,7′,7a′-hexahydrospiro[indoline-3,3′-pyrrolizine]-2′-carboxylic acid] |  |  |  | + (NAUC “+” refers to an observed NAUC <140% of positive control) |  |  |
| C[C@]1(O)CC2C(C(=O)Nc3cc(C(F)(F)F)cc(C(F)(F)F)n3)C(C(=O)O)C3(C(=O)Nc4c(Cl)cc(Cl)cc43)N2C1 (stereo partly drawn) [Example 5] |  |  |  | +++ (NAUC “+++” refers to an observed NAUC>170% of positive control) | +++ (NAUC “+++” refers to an observed NAUC>170% of positive control) |  |
| O=C(Nc1cc(Cl)cc(Cl)c1)C1CN(C(=O)Nc2ccccc2)C2(C(=O)Nc3c(Cl)cc(Cl)cc32)C1C(=O)O (stereo not drawn) [Example 30] |  |  |  | ++ (NAUC “++” refers to an observed NAUC 170-140% of positive control) | + (NAUC “+” refers to an observed NAUC <140% of positive control) |  |
| O=C(Nc1cc(Cl)cc(Cl)c1)C1CN(CC(F)(F)F)C2(C(=O)Nc3c(Cl)cc(Cl)cc32)C1C(=O)O (stereo not drawn) [Example 41] |  |  |  | ++ (NAUC “++” refers to an observed NAUC 170-140% of positive control) | + (NAUC “+” refers to an observed NAUC <140% of positive control) |  |
| O=C(Nc1ccc2ccccc2c1)[C@H]1[C@H]2CC(F)(F)CN2[C@]2(C(=O)Nc3c(Cl)cc(Cl)cc32)[C@H]1C(=O)O [Example 117] |  |  |  | + (NAUC “+” refers to an observed NAUC <140% of positive control) | ++ (NAUC “++” refers to an observed NAUC 170-140% of positive control) | + (NAUC “+” refers to an observed NAUC <140% of positive control) |
| CC(C)(C)C(C)(C)CN(C(=O)[C@H]1[C@H]2CC(F)(F)CN2[C@]2(C(=O)Nc3c(Cl)cc(Cl)cc32)[C@H]1C(=O)O)c1cc(Cl)cc(Cl)c1 [Example 185] | +++ (NAUC “+++” refers to an observed NAUC>170% of positive control) | +++ (NAUC “+++” refers to an observed NAUC>170% of positive control) | + (NAUC “+” refers to an observed NAUC <140% of positive control) |  |  |  |
| O=C(Nc1cc(Cl)cc(Cl)c1F)C1C2CC(F)(F)CN2C2(C(=O)Nc3c(Cl)cc(Cl)cc32)C1C(=O)O (stereo not drawn) [Example 42] |  |  |  | +++ (NAUC “+++” refers to an observed NAUC>170% of positive control) | +++ (NAUC “+++” refers to an observed NAUC>170% of positive control) |  |
| O=C(Nc1cc(Cl)cc(Cl)c1)C1C(C(F)(F)c2cccnc2)NC2(C(=O)Nc3c(Cl)cc(Cl)cc32)C1C(=O)O (stereo not drawn) [Example 74.a] |  |  |  | + (NAUC “+” refers to an observed NAUC <140% of positive control) |  |  |
| C[C@]1(O)C[C@@H]2[C@H](C(=O)Nc3cc(Cl)cc(Cl)c3)[C@H](C(N)=O)[C@@]3(C(=O)Nc4c(Cl)cc(Cl)cc43)N2C1 [Example 244, (1′R,2′S,6′S,7a′R)-5,7-dichloro-N1′-(3,5-dichlorophenyl)-6′-hydroxy-6′-methyl-2-oxo-1′,2′,5′,6′,7′,7a′-hexahydrospiro[indoline-3,3′-pyrrolizine]-1,2′-dicarboxamide] |  |  |  | + (NAUC “+” refers to an observed NAUC <140% of positive control) | + (NAUC “+” refers to an observed NAUC <140% of positive control) | + (NAUC “+” refers to an observed NAUC <140% of positive control) |
| CN(C)CCN(C(=O)[C@H]1[C@H]2CC(F)(F)CN2[C@]2(C(=O)Nc3c(Cl)cc(Cl)cc32)[C@H]1C(=O)O)c1cc(Cl)cc(Cl)c1 [Example 160] | + (NAUC “+” refers to an observed NAUC <140% of positive control) | + (NAUC “+” refers to an observed NAUC <140% of positive control) |  |  |  |  |
| CC1(C)CC2C(C(=O)Nc3cc(Cl)c(OC(F)F)c(Cl)c3)C(C(=O)O)C3(C(=O)Nc4c(Cl)cc(Cl)cc43)N2C1 (stereo not drawn) [Example 8, 5,7-dichloro-1′-((3,5-dichloro-4-(difluoromethoxy)phenyl)carbamoyl)-6′,6′-dimethyl-2-oxo-1′,2′,5′,6′,7′,7a′-hexahydrospiro[indoline-3,3′-pyrrolizine]-2′-carboxylic acid] |  |  |  | +++ (NAUC “+++” refers to an observed NAUC>170% of positive control) | +++ (NAUC “+++” refers to an observed NAUC>170% of positive control) |  |
| O=C(Nc1ccc2ncncc2c1)[C@H]1[C@H]2CC(F)(F)CN2[C@]2(C(=O)Nc3c(Cl)cc(Cl)cc32)[C@H]1C(=O)O [Example 140] | + (NAUC “+” refers to an observed NAUC <140% of positive control) | + (NAUC “+” refers to an observed NAUC <140% of positive control) |  |  |  |  |
| CN(C(=O)C1C2N(CCC2(F)F)C2(C(=O)Nc3c(Cl)cc(Cl)cc32)C1C(=O)O)c1cc(Cl)cc(Cl)c1 (single isomer, unassigned) [Example 268a, 5,7-dichloro-1′-((3,5-dichlorophenyl)(methyl)carbamoyl)-7′,7′-difluoro-2-oxo-1′,2′,5′,6′,7′,7a′-hexahydrospiro[indoline-3,3′-pyrrolizine]-2′-carboxylic acid] |  |  |  | + (NAUC “+” refers to an observed NAUC <140% of positive control) | + (NAUC “+” refers to an observed NAUC <140% of positive control) | + (NAUC “+” refers to an observed NAUC <140% of positive control) |
| CC(=O)OCOC(=O)[C@@H]1[C@@H](C(=O)N(C)c2cc(Cl)cc(Cl)c2)[C@H]2CC(F)(F)CN2[C@]12C(=O)Nc1c(Cl)cc(Cl)cc12 (single isomer, unassigned) [Example 256a] |  |  |  | +++ (NAUC “+++” refers to an observed NAUC>170% of positive control) |  |  |
| Cn1ccc(NC(=O)[C@H]2[C@@H](C(=O)Nc3cc(Cl)cc(Cl)c3)[C@H]3CCCN3[C@]23C(=O)Nc2c(Cl)cc(Cl)cc23)n1 (single isomer, unassigned) [Example 240, (1′R,2′S,7a′R)-5,7-dichloro-N1′-(3,5-dichlorophenyl)-N2′-(1-methyl-1H-pyrazol-3-yl)-2-oxo-1′,2′,5′,6′,7′,7a′-hexahydrospiro[indoline-3,3′-pyrrolizine]-1′,2′-dicarboxamide] |  |  |  | + (NAUC “+” refers to an observed NAUC <140% of positive control) | + (NAUC “+” refers to an observed NAUC <140% of positive control) | + (NAUC “+” refers to an observed NAUC <140% of positive control) |
| O=C(Nc1cc(Cl)cc(Cl)c1)C1C(C(F)(F)c2cccc(C(F)(F)F)c2)NC2(C(=O)Nc3c(Cl)cc(Cl)cc32)C1C(=O)O (stereo not drawn) [Example 70.a] |  |  |  | + (NAUC “+” refers to an observed NAUC <140% of positive control) |  |  |
